# “Also recorded” adds a separate entry of the source.
# Tests used:
# [1] = test system: breast cancer cell line MCF-7; experiment: IC50 values on breast cancer cell line MCF-7; assay type: cell-based; conditions: Homo sapiens, MCF7, 72 h, read-out: MCF-7(IC50, nM)
# In short: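 MCF-7 human breast cancer cells exposed to compounds for 72 h, with paclitaxel as positive control. IC50 from three independent repeats with replicate wells.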
# [2] = Caco-2 cell monolayer membrane transport assay; conditions: human; for recovery: Caco-2, Recovery rate in mass
# From the text: (§1) Caco-2 Cell Monolayer Membrane Transport Assay
# (§2) Human-derived colorectal adenocarcinoma cell line Caco-2 cell monolayer model was used to study the bidirectional transport of the target compounds from the apical (AP) side to the basolateral (BL) side and from BL side to AP side. HPLC was used for quantitative analysis to calculate transport parameters, apparent permeability coefficient (Papp) and the efflux ratio.
# [3] = test system: Caco-2 cell monolayer; experiment: Caco-2 cell monolayer membrane transport assay; conditions: Caco-2 monolayer
# From the text: as §1, §2
smiles,measurement,setting,value
CO[C@H]1C(=O)[C@]2(C)[C@@H](OC(=O)N(C)C)C[C@H]3OC[C@@]3(OC(C)=O)[C@H]2[C@H](OC(=O)c2ccccc2)[C@]2(O)C[C@H](OC(=O)[C@H](O)[C@@H](NC(=O)OC(C)(C)C)c3ccccc3)C(C)=C1C2(C)C [PCMI-31],IC50,[1],9.63 ± 0.12 nM
same,Papp B→A,[2]; Caco-2,260 nm/s
same,efflux ratio,[2]; Caco-2,1.73
same,Papp A→B,"[2]; Caco-2, Papp A-B, Caco-2 cell line (21 days), bidirectional transport, Table 5",150 nm/s
same,Papp A→B,"[2]; Caco-2, Papp A-B, Mean, Caco-2, A-B, mean of two samples",106 nm/s
same,Papp A→B,"[2]; Caco-2, Papp A-B, Sample-01, Caco-2, A-B, Sample-01",112 nm/s
same,Papp A→B,"[2]; Caco-2, Papp A-B, Sample-02, Caco-2, A-B, Sample-02",99.1 nm/s
same,Papp A→B,"[2]; Caco-2, Papp A-to-B, Caco-2",> 100 nm/s
same,recovery,"[2]; Mean, Caco-2, A-B, mean of two samples",86.8%
same,recovery,"[2]; Sample-01, Caco-2, A-B, Sample-01",83%
same,recovery,"[2]; Sample-02, Caco-2, A-B, Sample-02",90.6%
same,membrane permeability (in words),[3],highly permeable substrates; also recorded: highest membrane permeability
